The values below come from patent US11311522B1 (Cavion, Inc., priority 2018, dated 2022).

Each structure is given as a SMILES string. Where two headings read alike, the source gives them in different places.

In one data set the test system is harmaline-induced tremor. Particulars: dose levels up to 10 mg/kg; cited from earlier work.
The conditions of data set [1]: rodents; from literature; cited from earlier work.
For data set [2] the following is noted: rodents; from literature; cited from earlier work. This is another data set of the same source.
The conditions of data set [3]: rodents; from literature; cited from earlier work. The source holds these as a separate data set.
The test system of a further data set is Cav3. Particulars: from literature, cited from earlier work; for IC50: read-out: Cav3 potency.
For data set [4], the system named is patients with schizophrenia. Put plainly: PN004: safety. It counts as in vivo, human. The note with it: Study PN004, subjects with schizophrenia, BID Days 1 to 28; CX-8998 N = 86, Olanzapine N = 47.
Text: The primary efficacy endpoint was the mean change from baseline in the Positive and Negative Syndrome Scale (PANSS) total score at Week 4; secondary efficacy endpoints included responder rates on the PANSS total score at Week 4 and the change from baseline in the Clinical Global Impressions—Severity of Illness Scale at Week 4. Safety was monitored by adverse events, laboratory evaluations, ECGs, Holter monitoring, vital signs, the Simpson-Angus Scale, the Barnes Akathisia Rating Scale, the Abnormal Involuntary Movement Scale, and the Columbia Suicide-Severity Rating scale (C-SSRS).
A short description of data set [5]: T-CALM: plasma concentrations by 5-in-1 LC/MS/MS. Particulars: for Plasma concentration, mean: trough; for concentration at 4 h: human, plasma, oral, 4 hours post-dose. In kind it is in vivo, human.
Experimental: Additionally, at Visit 4, a post-dose sample will be collected as close to 4 hours post-dose as possible, but within the window of 4-6 hours post-dose (i.e., a total of two PK samples are collected at Visit 4.)
Assay performances were satisfactory and met acceptance criteria for system performance suitability, quantitation range, calibration linearity, assay accuracy and precision, and assay recovery.
The next data set deals with T1, Cav3.3 (Homo sapiens, UniProt Q9P0X4).
T1 construct: expressed in transfected cells; host or cells: HEK 293
T1 sequence (Q9P0X4 whole entry, species assumed): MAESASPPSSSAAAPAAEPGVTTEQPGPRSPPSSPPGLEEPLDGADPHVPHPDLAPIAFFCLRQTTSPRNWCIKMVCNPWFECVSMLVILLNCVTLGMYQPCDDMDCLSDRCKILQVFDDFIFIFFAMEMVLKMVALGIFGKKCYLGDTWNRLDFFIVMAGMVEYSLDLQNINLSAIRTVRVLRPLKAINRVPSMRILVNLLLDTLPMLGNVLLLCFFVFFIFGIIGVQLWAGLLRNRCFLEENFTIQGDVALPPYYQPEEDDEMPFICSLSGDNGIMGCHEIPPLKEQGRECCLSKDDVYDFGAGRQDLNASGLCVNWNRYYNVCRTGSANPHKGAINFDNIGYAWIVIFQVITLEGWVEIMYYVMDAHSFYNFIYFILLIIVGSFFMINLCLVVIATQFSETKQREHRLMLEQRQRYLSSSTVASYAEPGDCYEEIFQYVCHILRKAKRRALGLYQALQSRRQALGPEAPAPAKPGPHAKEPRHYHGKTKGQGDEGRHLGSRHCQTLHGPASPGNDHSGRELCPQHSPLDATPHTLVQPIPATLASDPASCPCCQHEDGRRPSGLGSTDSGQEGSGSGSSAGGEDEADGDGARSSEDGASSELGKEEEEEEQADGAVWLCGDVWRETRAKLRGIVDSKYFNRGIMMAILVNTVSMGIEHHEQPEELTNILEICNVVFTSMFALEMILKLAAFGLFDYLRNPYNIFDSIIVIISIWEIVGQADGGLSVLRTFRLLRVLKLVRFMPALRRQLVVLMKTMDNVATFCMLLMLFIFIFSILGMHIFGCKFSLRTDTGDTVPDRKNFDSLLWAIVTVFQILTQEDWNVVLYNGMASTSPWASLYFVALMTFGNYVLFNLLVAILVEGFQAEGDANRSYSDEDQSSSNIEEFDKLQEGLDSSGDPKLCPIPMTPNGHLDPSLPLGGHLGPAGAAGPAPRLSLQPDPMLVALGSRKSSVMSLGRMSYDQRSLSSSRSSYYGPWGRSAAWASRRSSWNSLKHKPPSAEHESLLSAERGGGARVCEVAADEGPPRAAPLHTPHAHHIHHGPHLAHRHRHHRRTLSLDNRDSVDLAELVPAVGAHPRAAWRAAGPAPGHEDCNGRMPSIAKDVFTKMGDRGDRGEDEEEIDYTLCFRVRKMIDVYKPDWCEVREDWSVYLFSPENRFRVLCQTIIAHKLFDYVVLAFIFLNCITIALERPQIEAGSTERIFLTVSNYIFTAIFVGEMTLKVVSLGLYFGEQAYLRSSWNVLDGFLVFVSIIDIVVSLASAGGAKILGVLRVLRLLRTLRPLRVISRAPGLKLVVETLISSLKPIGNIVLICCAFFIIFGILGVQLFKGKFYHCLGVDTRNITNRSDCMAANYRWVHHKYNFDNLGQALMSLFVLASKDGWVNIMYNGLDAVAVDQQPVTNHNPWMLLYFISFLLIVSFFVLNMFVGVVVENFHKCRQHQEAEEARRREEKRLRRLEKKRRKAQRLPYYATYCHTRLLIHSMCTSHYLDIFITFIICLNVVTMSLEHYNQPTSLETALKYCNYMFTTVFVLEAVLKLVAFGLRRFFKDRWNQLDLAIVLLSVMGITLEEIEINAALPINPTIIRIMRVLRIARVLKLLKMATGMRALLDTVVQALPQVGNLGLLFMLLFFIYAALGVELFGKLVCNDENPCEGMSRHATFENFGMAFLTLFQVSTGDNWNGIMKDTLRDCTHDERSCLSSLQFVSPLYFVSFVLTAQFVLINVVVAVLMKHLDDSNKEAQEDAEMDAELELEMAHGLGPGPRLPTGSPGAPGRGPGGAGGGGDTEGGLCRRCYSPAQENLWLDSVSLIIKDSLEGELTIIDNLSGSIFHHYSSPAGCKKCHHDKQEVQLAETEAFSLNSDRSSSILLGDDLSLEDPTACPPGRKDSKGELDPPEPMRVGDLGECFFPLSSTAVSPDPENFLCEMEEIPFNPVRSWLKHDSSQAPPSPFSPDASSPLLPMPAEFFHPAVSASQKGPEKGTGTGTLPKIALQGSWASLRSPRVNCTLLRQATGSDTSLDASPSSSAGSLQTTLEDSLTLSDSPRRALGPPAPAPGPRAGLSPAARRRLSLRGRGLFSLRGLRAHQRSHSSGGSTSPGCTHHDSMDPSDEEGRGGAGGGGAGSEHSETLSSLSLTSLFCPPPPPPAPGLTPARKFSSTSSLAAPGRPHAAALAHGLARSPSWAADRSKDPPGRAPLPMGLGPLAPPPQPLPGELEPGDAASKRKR
Put plainly: Cav3.3 FLIPR calcium influx assay (HEK 293 cells). Particulars: for IC50: Cav3.3 FLIPR assay; for State dependence: hyperpolarized versus depolarized FLIPR potency. It counts as cell-based.

For the next data set, the system named is WAG/Rij rats. In words: WAG/Rij rat model of absence epilepsy. In kind it is in vivo. Particulars: 10 mg/kg oral. The source says: Other T-type antagonists from structurally diverse series have shown similar efficacy in this model (Broicher, 2007; Blumenfeld, 2008; Broicher, 2008; Shipe, 2008; Yang, 2008; Uebele, 2009; Russo, 2010; Russo, 2011).
Data were scored with automated seizure analysis software, averaged, and normalized to enable treatment comparisons (FIG. 76)
Control animals received vehicle administrations. […] Source: Merck TTA Package Description (FIG. 79).

Data set [6] can be described thus: Single-dose toxicokinetic study in dogs. It counts as in vivo. The note with it: dog, plasma, po, 800 mg/kg.
Data set [7] is described as follows: In vitro plasma protein binding, human. It counts as in vitro ADME. The note with it: human plasma, read-out: Human-free fraction.
Data set [8] is described as follows: Brain penetration in male rats. It counts as in vivo. The note with it: rat, 25 mg/kg.
Another data set in a line: in vivo. Particulars: rat, po.
The nature of data set [9]: 90-day oral toxicology in Beagle dogs. The note with it: Beagle, dog, in vivo, po.
The subject of a further data set is GAERS rats. Put plainly: GAERS rat model of absence epilepsy. The note with it: 100 mg/kg oral.
[10] abbreviates: depolarized, read-out: Depolarized FLIPR potency.
Where [11] appears, read: hyperpolarized, read-out: Hyperpolarized FLIPR potency.

In the case of `CC1(C)C[C@@H](CN2CCC(F)(CNC(=O)c3cc(Cl)cc(Cl)c3)CC2)CCO1` [TTA-P2], the Harmaline-induced tremor result in the data set on harmaline-induced tremor is “normalized both physiologic tremor prior to harmaline administration and harmaline-induced tremor in a dose-dependent fashion”. In addition, in data set [1], the AUClast is 1.94 µM·h, the Cmax was 480 nM, the time to peak (Tmax) was 0.7 h and the t½ is 1.8 h. Further, the Plasma-free fraction in data set [2] is on record as 5.7%. Further, the Brain/plasma ratio in data set [3] was 6.0. Further, in the data set with Cav3, the State dependency is recorded as 1 fold and the IC50 is 84 to 196 nM.
On to `Cc1cc2c(s1)Nc1ccccc1N=C2N1CCN(C)CC1` [olanzapine, reference compound], for which, in data set [4], the Anxiety is listed as 0 (0.0), the “At least 1 adverse event” value was 23 (48.9), the Chronic pharyngitis was 0 (0.0) and the Dizziness is given as 1 (2.1). Also, in [4], the Headache was 3 (6.4), the Rhinopharyngitis is on record as 0 (0.0), the Schizophrenia was 1 (2.1) and the Sinus tachycardia was 3 (6.4). The Somnolence in data set [4] is 3 (6.4).
For the compound `CC(C(=O)O)c1ccc(CC(=O)N[C@H](C)c2ccc(OCC(F)(F)F)cn2)cc1` (stereo partly shown) [M03], the “Plasma concentration, mean” value in [5] (Visit 2 (Day 8), 4 mg BID) is 11 nM; in [5] (Visit 3 (Day 15), 8 mg BID), 16 nM; in data set [5] (Visit 4 (Day 28), 10 mg BID) it was 20 nM. This compound also showed a concentration at 4 h in [5] (Visit 4 (Day 28), 10 mg BID) of 22 nM. Moreover, at Cav3.3, the “Potency and state dependence compared with CX-8998” value was “significantly less potent and state dependent”. Further, the IC50 came to 948 nM at Cav3.3 (setting [10]) and 3320 nM on Cav3.3 (setting [11]). Moreover, the State dependence at Cav3.3 stood at 3.5 fold. Further, the Percent of inhibition with WAG/Rij rats turned out to be 71%. Further, the Tmax in [6] (female) was found to be 8 h; in data set [6] (male) it was 24 h. Further, in [7], the fraction unbound was 0.21. Further, the Kp at 2 h in data set [8] (brain and plasma, oral, read-out: Brain-to-plasma ratio) was determined as 0.01; in data set [8] (brain, po, read-out: Brain: Plasma Ratio) it was 0.01. Moreover, the AUC is 9.85 µM·h in the data set “in vivo” (female, 5 mg/kg); 19.7 µM·h in the data set “in vivo” (female, 15 mg/kg); 159 µM·h in the data set “in vivo” (female, 100 mg/kg); 169 µM·h in “in vivo” (female, 300 mg/kg); 23.9 µM·h in the data set “in vivo” (male, 5 mg/kg); 34.9 µM·h in the data set “in vivo” (male, 15 mg/kg). The AUC in the data set “in vivo” (male, 100 mg/kg) stood at 181 µM·h; in the data set “in vivo” (male, 300 mg/kg) it was 213 µM·h; in data set [9] (female, 10 mg/kg), 8.4 µM·h; in data set [9] (female, 30 mg/kg), 15.4 µM·h; in [9] (female, 100 mg/kg/day) it was 17.2 µM·h; in data set [9] (male, 10 mg/kg) it was 10.5 µM·h. Also, the AUC in data set [9] (male, 30 mg/kg) was determined as 12.3 µM·h; in data set [9] (male, 100 mg/kg/day), 79.6 µM·h.
Consider `CCC1(C)CC(=O)NC1=O` (stereo not shown) [Ethosuximide, ethosuximide], for which the “Number and frequency of seizures” value in the data set on GAERS rats is “only partially suppressed”.
On to `C[C@@H](NC(=O)Cc1ccc(C2CC2)cc1)c1ccc(OCC(F)(F)F)cn1` [TTA-A2], for which, in data set [1], the AUClast is 30 µM·h and the t½ was 1.5 h. In addition, the Plasma-free fraction in [2] is listed as 0.6%. In the data set with Cav3, the State dependency is not below 40 fold and the IC50 was 89 to 98 nM.
For `CC(CO)c1ccc(CC(=O)N[C@H](C)c2ccc(OCC(F)(F)F)cn2)cc1` (stereo partly shown) [M04], the “Plasma concentration, mean” value in [5] (Visit 2 (Day 8), 4 mg BID) is recorded as 4.5 nM; in [5] (Visit 3 (Day 15), 8 mg BID) it was 4.9 nM; in [5] (Visit 4 (Day 28), 10 mg BID), 5.6 nM. The concentration at 4 h in data set [5] (Visit 4 (Day 28), 10 mg BID) was determined as 6.4 nM. On Cav3.3, the “Fold less potent than CX-8998” value is given as “approximately 5 fold”. The IC50 on Cav3.3 (setting [10]) amounted to 19 nM; at Cav3.3 (setting [11]), 1810 nM. The State dependence at Cav3.3 was 95 fold. The Percent of inhibition in the data set on WAG/Rij rats is reported as 60%. In data set [7], the fraction unbound came out at 0.13. The AUC in the data set “in vivo” (female, 5 mg/kg) is 3.19 µM·h; in the data set “in vivo” (female, 15 mg/kg), 8.04 µM·h; in the data set “in vivo” (female, 100 mg/kg) it was 61.9 µM·h; in the data set “in vivo” (female, 300 mg/kg), 55.3 µM·h; in the data set “in vivo” (male, 5 mg/kg) it was 1.32 µM·h; in “in vivo” (male, 15 mg/kg), 2.47 µM·h. Also, the area under the curve (AUC) in “in vivo” (male, 100 mg/kg) came out at 15.5 µM·h; in “in vivo” (male, 300 mg/kg), 19.4 µM·h; in [9] (female, 10 mg/kg), 2.19 µM·h; in data set [9] (female, 30 mg/kg), 3.75 µM·h; in data set [9] (female, 100 mg/kg/day), 8.1 µM·h; in data set [9] (male, 10 mg/kg) it was 3.37 µM·h. Moreover, the AUC in data set [9] (male, 30 mg/kg) came out at 2.25 µM·h; in data set [9] (male, 100 mg/kg/day), 33.9 µM·h.

A word on the Cmax: it is the maximum level reached in the sampled fluid or tissue. One may read the Tmax as the time at which the peak concentration occurs. One may read the t½ as the time needed for the level to fall by half in the phase considered. As usually defined, the AUC is concentration integrated over time. Read a low AUC as low exposure.
